This passage reports remaining binding results from patent US10870647B2, “Imidazopyridine derivative, method for preparing same, and pharmaceutical composition containing same as active ingredient for preventing or treating cancer” (DAEGU-GYEONGBUK MEDICAL INNOVATION FOUNDATION, priority 2016, dated 2020).

What all share (assay): Kinase selectivity, scanMAX Kinase assay panel (DiscoverX), % control at 1 uM
What all share (type): binding

For assay [1], the target named is T1, scanMAX Kinase assay panel (Homo sapiens, UniProt O14976).
T1 construct: purchased DiscoverX
T1 sequence (O14976 1-1311): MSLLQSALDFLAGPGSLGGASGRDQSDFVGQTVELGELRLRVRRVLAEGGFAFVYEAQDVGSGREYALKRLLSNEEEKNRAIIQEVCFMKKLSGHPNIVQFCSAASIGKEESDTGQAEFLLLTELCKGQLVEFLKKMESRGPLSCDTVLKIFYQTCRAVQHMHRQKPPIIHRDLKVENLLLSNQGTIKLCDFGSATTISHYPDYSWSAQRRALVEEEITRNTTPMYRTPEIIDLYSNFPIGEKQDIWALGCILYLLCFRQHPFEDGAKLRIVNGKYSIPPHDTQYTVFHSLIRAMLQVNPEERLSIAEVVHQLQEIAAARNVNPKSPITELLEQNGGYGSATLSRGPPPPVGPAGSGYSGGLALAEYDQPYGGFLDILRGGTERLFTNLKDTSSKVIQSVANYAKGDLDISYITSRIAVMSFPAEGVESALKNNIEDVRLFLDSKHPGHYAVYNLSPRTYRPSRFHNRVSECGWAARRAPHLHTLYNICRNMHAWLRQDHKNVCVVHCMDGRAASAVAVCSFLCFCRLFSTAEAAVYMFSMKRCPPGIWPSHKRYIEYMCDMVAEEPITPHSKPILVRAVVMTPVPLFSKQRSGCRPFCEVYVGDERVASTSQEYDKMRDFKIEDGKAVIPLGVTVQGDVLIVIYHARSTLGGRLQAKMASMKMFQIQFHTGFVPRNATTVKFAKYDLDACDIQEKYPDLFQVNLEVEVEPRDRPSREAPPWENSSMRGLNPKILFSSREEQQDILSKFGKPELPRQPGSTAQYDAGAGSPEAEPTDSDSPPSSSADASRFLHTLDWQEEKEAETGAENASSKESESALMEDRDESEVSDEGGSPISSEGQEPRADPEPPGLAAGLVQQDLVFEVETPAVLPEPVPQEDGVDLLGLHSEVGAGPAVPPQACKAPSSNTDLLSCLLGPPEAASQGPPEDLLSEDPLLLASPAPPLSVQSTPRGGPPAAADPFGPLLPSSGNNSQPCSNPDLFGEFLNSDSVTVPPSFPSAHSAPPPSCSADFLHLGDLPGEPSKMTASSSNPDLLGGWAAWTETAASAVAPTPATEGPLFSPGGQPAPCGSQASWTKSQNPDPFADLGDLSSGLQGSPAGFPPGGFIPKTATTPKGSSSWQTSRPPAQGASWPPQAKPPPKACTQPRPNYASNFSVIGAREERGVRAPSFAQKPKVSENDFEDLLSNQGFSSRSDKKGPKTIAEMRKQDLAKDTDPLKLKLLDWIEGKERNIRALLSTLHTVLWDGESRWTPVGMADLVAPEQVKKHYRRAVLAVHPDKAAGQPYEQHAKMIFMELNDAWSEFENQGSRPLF
To be noted: GAK; 1 uM; read-out: Percent Control (%). The procedure, abridged: (§1)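 Each kinase was first exposed to the test compound at 1 uM in DMSO. Signal was then normalised to positive and negative controls to give % control. Finally, any enzyme showing <35% control was judged inhibited.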

Assay [2] concerns the target T2, scanMAX Kinase assay panel (Homo sapiens, UniProt P06239).
T2 construct: purchased DiscoverX
Conditions: LCK; 1 uM; read-out: Percent Control (%). The procedure, abridged: as §1

Assay [3] deals with T3, scanMAX Kinase assay panel (Homo sapiens, UniProt P42336, Q546K).
T3 construct: purchased DiscoverX
T3 sequence (P42336 whole entry Q546K): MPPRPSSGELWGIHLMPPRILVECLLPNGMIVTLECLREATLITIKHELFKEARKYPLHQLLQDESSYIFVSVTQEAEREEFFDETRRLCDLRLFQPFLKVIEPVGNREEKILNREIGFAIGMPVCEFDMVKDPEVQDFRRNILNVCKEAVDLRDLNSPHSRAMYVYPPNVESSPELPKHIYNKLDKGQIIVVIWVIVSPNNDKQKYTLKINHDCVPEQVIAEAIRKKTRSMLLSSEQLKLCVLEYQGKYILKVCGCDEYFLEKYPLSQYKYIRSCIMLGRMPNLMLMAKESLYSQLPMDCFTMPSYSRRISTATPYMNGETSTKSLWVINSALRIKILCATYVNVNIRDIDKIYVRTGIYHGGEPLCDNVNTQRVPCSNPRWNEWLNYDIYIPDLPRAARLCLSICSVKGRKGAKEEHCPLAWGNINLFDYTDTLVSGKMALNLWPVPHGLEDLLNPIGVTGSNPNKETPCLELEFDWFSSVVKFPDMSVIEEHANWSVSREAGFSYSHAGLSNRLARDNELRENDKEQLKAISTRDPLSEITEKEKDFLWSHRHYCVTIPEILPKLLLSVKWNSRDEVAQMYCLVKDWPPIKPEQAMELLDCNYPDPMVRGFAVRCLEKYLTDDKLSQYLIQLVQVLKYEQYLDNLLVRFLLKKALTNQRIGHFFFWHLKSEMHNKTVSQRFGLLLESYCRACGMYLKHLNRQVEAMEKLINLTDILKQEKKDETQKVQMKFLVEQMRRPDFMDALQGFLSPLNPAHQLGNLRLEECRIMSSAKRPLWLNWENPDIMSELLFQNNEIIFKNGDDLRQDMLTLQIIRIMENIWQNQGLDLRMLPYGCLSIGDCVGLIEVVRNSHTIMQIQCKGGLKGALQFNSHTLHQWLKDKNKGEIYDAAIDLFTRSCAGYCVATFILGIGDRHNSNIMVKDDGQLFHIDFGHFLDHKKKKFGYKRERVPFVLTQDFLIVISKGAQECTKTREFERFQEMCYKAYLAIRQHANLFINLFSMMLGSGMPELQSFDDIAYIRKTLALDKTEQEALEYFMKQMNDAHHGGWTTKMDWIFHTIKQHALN
To be noted: PIK3CA (Q546K); 1 uM; read-out: Percent Control (%). In a few lines:
as §1

The target of assay [4] is T4, scanMAX Kinase assay panel (Homo sapiens, UniProt P51617).
T4 construct: purchased DiscoverX
T4 sequence (P51617 whole entry): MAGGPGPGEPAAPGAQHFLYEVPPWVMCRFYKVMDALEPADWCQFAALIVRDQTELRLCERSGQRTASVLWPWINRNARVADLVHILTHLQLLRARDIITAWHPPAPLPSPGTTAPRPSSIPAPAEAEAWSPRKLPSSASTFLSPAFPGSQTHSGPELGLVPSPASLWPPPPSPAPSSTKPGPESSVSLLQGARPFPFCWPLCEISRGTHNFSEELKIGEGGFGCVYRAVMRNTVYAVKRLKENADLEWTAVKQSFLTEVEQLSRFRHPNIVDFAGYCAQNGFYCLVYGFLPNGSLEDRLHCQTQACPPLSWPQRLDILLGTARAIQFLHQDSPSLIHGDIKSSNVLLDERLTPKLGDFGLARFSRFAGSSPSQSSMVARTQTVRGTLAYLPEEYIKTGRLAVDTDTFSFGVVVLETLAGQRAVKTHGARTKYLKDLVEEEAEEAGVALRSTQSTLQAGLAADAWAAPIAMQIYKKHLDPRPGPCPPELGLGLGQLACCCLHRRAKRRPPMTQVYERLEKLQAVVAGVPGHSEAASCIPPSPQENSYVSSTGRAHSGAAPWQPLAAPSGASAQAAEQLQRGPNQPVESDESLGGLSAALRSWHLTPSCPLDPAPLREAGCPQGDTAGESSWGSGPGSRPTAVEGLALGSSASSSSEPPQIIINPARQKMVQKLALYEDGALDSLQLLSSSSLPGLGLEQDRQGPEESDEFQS
Conditions: IRAK1; 1 uM; read-out: Percent Control (%). In a few lines: as §1

Assay [5] deals with T5, scanMAX Kinase assay panel (Homo sapiens, UniProt Q13043).
T5 construct: purchased DiscoverX
T5 sequence (Q13043 1-487): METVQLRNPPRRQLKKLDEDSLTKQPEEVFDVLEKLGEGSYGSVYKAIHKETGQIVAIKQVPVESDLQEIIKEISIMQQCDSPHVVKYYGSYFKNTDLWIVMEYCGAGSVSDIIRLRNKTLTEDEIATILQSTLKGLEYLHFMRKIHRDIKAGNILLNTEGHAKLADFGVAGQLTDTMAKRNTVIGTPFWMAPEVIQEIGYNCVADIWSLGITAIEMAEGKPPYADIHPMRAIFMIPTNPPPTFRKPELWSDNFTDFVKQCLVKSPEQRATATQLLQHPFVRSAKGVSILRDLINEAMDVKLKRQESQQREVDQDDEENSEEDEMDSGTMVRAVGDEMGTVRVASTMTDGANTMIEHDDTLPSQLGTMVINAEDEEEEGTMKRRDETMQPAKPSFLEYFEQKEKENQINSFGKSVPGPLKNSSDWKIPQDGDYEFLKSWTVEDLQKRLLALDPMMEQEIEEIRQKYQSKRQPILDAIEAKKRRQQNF
Conditions: MST1; 1 uM; read-out: Percent Control (%). The procedure, abridged: as §1

The target of assay [6] is T6, scanMAX Kinase assay panel (Homo sapiens, UniProt Q14289).
T6 construct: purchased DiscoverX
T6 sequence (Q14289 whole entry): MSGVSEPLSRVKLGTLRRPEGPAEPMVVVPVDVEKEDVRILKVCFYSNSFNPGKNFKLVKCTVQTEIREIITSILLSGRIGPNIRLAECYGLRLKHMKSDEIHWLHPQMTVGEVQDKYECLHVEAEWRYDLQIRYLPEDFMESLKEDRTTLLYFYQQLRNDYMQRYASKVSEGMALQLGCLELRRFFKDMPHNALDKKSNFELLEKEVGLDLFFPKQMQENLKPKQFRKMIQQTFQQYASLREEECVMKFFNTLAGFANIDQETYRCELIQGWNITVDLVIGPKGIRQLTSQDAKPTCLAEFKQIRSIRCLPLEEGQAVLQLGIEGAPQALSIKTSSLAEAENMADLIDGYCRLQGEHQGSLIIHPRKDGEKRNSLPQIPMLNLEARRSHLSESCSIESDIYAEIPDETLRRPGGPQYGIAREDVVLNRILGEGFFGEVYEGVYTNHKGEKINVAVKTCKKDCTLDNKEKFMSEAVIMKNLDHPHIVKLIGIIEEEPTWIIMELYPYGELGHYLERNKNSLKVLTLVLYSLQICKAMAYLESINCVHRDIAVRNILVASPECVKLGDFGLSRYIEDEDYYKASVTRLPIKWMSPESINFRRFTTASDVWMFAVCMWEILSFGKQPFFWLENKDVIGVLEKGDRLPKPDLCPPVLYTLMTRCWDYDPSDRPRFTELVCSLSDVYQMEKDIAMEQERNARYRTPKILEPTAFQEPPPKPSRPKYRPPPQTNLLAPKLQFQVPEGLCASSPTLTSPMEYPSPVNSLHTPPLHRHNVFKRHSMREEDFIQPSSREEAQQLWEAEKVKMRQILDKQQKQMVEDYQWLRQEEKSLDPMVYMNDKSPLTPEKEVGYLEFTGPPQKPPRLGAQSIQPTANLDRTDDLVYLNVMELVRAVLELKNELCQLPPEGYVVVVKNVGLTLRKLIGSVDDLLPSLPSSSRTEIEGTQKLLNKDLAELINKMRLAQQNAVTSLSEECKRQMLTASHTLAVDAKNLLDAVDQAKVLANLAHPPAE
To be noted: PYK2; 1 uM; read-out: Percent Control (%). In a few lines:
as §1

The target in assay [7] is T7, scanMAX Kinase assay panel (Homo sapiens, UniProt Q15569).
T7 construct: purchased DiscoverX
T7 sequence (Q15569 whole entry): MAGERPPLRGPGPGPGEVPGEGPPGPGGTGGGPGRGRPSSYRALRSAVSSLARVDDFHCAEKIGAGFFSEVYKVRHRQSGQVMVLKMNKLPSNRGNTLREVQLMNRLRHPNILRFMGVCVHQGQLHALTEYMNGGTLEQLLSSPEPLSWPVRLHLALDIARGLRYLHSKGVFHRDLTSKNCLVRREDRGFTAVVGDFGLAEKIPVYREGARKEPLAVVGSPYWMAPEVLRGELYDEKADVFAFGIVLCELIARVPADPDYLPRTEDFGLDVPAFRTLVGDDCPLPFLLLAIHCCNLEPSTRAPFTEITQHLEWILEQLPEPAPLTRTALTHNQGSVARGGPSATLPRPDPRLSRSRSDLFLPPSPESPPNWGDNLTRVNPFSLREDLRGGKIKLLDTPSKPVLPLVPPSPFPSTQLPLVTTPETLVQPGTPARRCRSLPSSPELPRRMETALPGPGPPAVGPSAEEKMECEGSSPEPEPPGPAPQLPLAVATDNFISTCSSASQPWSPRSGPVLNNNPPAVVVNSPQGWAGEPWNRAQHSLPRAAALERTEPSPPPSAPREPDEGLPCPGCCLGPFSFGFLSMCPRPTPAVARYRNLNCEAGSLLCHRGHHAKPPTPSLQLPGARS
Conditions: TESK1; 1 uM; read-out: Percent Control (%). The procedure, abridged:
as §1

Assay [8] has as its target T8, scanMAX Kinase assay panel (Homo sapiens, UniProt Q92918).
T8 construct: purchased DiscoverX
Conditions: HPK1; 1 uM; read-out: Percent Control (%). The procedure, abridged:
as §1

In assay [9] the target is T9, scanMAX Kinase assay panel (Homo sapiens, UniProt Q9P1W9).
T9 construct: purchased DiscoverX
T9 sequence (Q9P1W9 whole entry): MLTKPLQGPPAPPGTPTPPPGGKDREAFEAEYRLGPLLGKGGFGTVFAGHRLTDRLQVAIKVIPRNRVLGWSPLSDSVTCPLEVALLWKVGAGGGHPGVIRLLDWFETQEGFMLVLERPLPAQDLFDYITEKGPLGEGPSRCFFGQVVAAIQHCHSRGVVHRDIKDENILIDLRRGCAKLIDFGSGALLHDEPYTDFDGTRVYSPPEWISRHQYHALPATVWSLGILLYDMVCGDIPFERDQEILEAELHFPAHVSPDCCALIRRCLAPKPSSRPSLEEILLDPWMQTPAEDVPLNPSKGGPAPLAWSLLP
Conditions: PIM2; 1 uM; read-out: Percent Control (%). The procedure, abridged: as §1

T8 sequence (Q92918 whole entry): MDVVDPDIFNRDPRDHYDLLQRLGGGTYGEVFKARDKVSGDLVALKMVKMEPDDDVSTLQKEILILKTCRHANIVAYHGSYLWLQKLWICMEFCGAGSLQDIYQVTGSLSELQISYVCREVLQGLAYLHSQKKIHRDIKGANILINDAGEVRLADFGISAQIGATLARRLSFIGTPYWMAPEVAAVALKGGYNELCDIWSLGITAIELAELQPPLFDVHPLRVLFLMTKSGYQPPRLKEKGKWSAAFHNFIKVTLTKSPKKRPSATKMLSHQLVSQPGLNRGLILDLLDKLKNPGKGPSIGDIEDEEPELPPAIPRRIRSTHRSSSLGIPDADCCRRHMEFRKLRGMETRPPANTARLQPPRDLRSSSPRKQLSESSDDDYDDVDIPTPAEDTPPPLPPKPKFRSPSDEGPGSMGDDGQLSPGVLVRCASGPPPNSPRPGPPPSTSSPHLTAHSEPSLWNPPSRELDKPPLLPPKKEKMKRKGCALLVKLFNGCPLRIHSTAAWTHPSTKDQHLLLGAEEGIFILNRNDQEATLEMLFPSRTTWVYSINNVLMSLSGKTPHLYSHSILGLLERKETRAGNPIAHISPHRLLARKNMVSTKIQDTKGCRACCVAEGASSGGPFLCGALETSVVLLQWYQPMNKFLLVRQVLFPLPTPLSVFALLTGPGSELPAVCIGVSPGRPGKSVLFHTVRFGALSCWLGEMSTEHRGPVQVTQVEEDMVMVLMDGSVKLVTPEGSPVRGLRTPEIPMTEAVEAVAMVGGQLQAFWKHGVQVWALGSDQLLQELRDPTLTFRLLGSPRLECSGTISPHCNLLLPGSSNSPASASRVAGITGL
T2 sequence (P06239 whole entry): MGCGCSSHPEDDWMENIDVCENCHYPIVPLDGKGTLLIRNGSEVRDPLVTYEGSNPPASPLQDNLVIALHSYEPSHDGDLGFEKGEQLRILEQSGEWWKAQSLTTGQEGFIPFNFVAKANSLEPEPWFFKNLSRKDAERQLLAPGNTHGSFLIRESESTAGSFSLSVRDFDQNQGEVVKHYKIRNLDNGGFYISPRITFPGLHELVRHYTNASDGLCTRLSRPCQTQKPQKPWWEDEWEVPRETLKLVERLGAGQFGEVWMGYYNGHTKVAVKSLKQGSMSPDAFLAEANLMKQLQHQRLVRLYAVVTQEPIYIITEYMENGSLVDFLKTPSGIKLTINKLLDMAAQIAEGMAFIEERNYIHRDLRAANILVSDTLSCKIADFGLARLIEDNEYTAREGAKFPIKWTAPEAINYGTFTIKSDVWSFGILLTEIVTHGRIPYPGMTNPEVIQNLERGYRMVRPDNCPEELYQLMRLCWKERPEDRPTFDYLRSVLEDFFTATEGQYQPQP

Consider `Cc1ccc(C(=O)Nc2ccc(CN3CCN(C)CC3)c(C(F)(F)F)c2)cc1C#Cc1cnc2c(Nc3cnn(C)c3)cccn12` [Example 1, 4-methyl-3-((8-((1-methyl-1H-pyrazol-4-yl)amino)imidazo[1,2-a]pyridin-3-yl)ethynyl)-N-(4-((4-methylpiperazin-1-yl)methyl)-3-(trifluoromethyl)phenyl)benzamide], for which the remaining binding at 1 µM in [1] was 7%; in assay [2] it was 0%; in assay [3] it was 83%; in [4], 6%; in assay [5], 27%; in assay [6], 4%. The remaining binding at 1 µM in [7] was 26%; in assay [8] it was 1%; in assay [9], 100%.

Regarding `Cc1cn(-c2cc(NC(=O)c3ccc(C)c(C#Cc4cnc5c(Nc6cnn(C)c6)cccn45)c3)cc(C(F)(F)F)c2)cn1` [Example 12, 4-methyl-N-(3-(4-methyl-1H-imidazol-1-yl)-5-(trifluoromethyl)phenyl)-3-((8-((1-methyl-1H-pyrazol-4-yl)amino)imidazo[1,2-a]pyridin-3-yl)ethynyl)benzamide], the remaining binding at 1 µM in assay [1] was 87%; in [2], 0%; in [3], 100%; in assay [4], 100%; in assay [5], 84%; in assay [6], 29%. The remaining binding at 1 µM worked out at 81% in assay [7], 5% in assay [8] and 91% in assay [9].

Regarding `Cc1ccc(NC(=O)C2(C(=O)Nc3ccc(F)cc3)CC2)cc1C#Cc1cnc2c(Nc3cnn(C(C)C)c3)cccn12` [Example 78], the remaining binding at 1 µM in [1] came out at 100%; in [2], 40%; in assay [3], 89%; in assay [4], 100%; in assay [5] it was 100%; in [6] it was 100%. The remaining binding at 1 µM in [7] stood at 100%; in [8] it was 78%; in [9] it was 100%.
